Measurements: US8889854B2, “C-17 bicyclic amines of triterpenoids with HIV maturation inhibitory activity” (priority 2012, dated 2014)
pEC50: −log10 of the molar value.

Tested on: recombinant NL4-3 virus (Renilla luciferase in nef, Gag P373S; NLRluc)
Assay: HIV Cell Culture Assay (luciferase reporter virus in MT-2 cells)
Type: cell-based
Settings: Renilla, NL43, MT-2 cells infected for 4-5 days with NLRluc recombinants, luciferase activity
Description: MT-2 cells and 293T cells were obtained from the NIH AIDS Research and Reference Reagent Program. MT-2 cells were propagated in RPMI 1640 media supplemented with 10% heat inactivated fetal bovine serum, […]. The 293T cells were propagated in DMEM media supplemented with 10% heat inactivated fetal bovine serum (FBS), 100 units/mL penicillin G and 100 μg/mL streptomycin. The proviral DNA clone of NL4-3 was obtained from the NIH AIDS Research and Reference Reagent Program. A recombinant NL4-3 virus, in which a section of the nef gene from NL4-3 was replaced with the Renilla luciferase gene, was used as a reference virus. In addition, residue Gag P373 was converted to P373S. Briefly, the recombinant virus was prepared by transfection of the altered proviral clone of NL4-3. Transfections were performed in 293T cells using LipofectAMINE PLUS from Invitrogen (Carlsbad, Calif.), according to manufacturer's instruction. The virus was titered in MT-2 cells using luciferase enzyme activity as a marker. Luciferase was quantitated using the Dual Luciferase kit from Promega (Madison, Wis.), with modifications to the manufacturer's protocol. The diluted Passive Lysis solution was pre-mixed with the re-suspended Luciferase Assay Reagent and the re-suspended Stop & Glo Substrate (2:1:1 ratio). Fifty (50) μL of the mixture was added to each aspirated well on assay plates and luciferase activity was measured immediately on a Wallac TriLux (Perkin-Elmer). Antiviral activities of inhibitors toward the recombinant virus were quantified by measuring luciferase activity in cells infected for 4-5 days with NLRluc recombinants in the presence serial dilutions of the inhibitor. Table 1 is the key for the data in Table 2.

| Compound | pEC50 | pEC50 (reported as group A/B) |
| --- | --- | --- |
| C=C(C)[C@@H]1CC[C@]2(NCCN3C[C@H]4C[C@@H](C3)N4S(C)(=O)=O)CC[C@]3(C)[C@H](CC[C@@H]4[C@@]5(C)CC=C(c6ccc(C(=O)O)cc6)C(C)(C)[C@@H]5CC[C@]43C)[C@@H]12 [Example 14, 4-((1R,3aS,5aR,5bR,7aR,11aS,11bR,13aR,13bR)-5a,5b,8,8,11a-pentamethyl-3a-((2-((1R,5S)-6-(methylsulfonyl)-3,6-diazabicyclo[3.1.1]heptan-3-yl)ethyl)amino)-1-(prop-1-en-2-yl)-2,3,3a,4,5,5a,5b,6,7,7a,8,11,11a,11b,12,13,13a,13b-octadecahydro-1H-cyclopenta[a]chrysen-9-yl)benzoic acid] | 8.49 | – |
| C=C(C)[C@@H]1CC[C@]2(NCCN3C[C@@H]4C[C@H]3CO4)CC[C@]3(C)[C@H](CC[C@@H]4[C@@]5(C)CC=C(c6ccc(C(=O)O)cc6)C(C)(C)[C@@H]5CC[C@]43C)[C@@H]12 [Example 7, 4-((1R,3aS,5aR,5bR,7aR,11aS,11bR,13aR,13bR)-3a-((2-((1S,4S)-2-oxa-5-azabicyclo[2.2.1]heptan-5-yl)ethyl)amino)-5a,5b,8,8,11a-pentamethyl-1-(prop-1-en-2-yl)-2,3,3a,4,5,5a,5b,6,7,7a,8,11,11a,11b,12,13,13a,13b-octadecahydro-1H-cyclopenta[a]chrysen-9-yl)benzoic acid] | – | > 7.00 |
| C=C(C)[C@@H]1CC[C@]2(NCCN3C[C@H]4C[C@@H]3CS4(=O)=O)CC[C@]3(C)[C@H](CC[C@@H]4[C@@]5(C)CC=C(c6ccc(C(=O)O)cc6)C(C)(C)[C@@H]5CC[C@]43C)[C@@H]12 [Example 18, 4-((1R,3aS,5aR,5bR,7aR,11aS,11bR,13aR,13bR)-3a-((2-((1R,4R)-2,2-dioxido-2-thia-5-azabicyclo[2.2.1]heptan-5-yl)ethyl)amino)-5a,5b,8,8,11a-pentamethyl-1-(prop-1-en-2-yl)-2,3,3a,4,5,5a,5b,6,7,7a,8,11,11a,11b,12,13,13a,13b-octadecahydro-1H-cyclopenta[a]chrysen-9-yl)benzoic acid] | – | > 7.00 |
| C=C(C)[C@@H]1CC[C@]2(NC(=O)CN3C[C@@H]4C[C@H]3CN4Cc3ccccc3)CC[C@]3(C)[C@H](CC[C@@H]4[C@@]5(C)CC=C(c6ccc(C(=O)O)cc6)C(C)(C)[C@@H]5CC[C@]43C)[C@@H]12 [Example 3, 4-((1R,3aS,5aR,5bR,7aR,11aS,11bR,13aR,13bR)-3a-(2-((1S,4S)-5-benzyl-2,5-diazabicyclo[2.2.1]heptan-2-yl)acetamido)-5a,5b,8,8,11a-pentamethyl-1-(prop-1-en-2-yl)-2,3,3a,4,5,5a,5b,6,7,7a,8,11,11a,11b,12,13,13a,13b-octadecahydro-1H-cyclopenta[a]chrysen-9-yl)benzoic acid] | – | > 7.00 |
| C=C(C)[C@@H]1CC[C@]2(NCCN3C[C@@H]4C[C@H]3CO4)CC[C@]3(C)[C@H](CC[C@@H]4[C@@]5(C)CC=C(C6=CC[C@@H](C(=O)O)CC6)C(C)(C)[C@@H]5CC[C@]43C)[C@@H]12 [Example B10, (S)-4-((1R,3 aS,5aR,5bR,7aR,11aS,11bR,13 aR,13bR)-3a-((2-((1S,4S)-2-oxa-5-azabicyclo[2.2.1]heptan-5-yl)ethyl)amino)-5a,5b,8,8,11a-pentamethyl-1-(prop-1-en-2-yl)-2,3,3a,4,5,5a,5b,6,7,7a,8,11,11a,11b,12,13,13a,13b-octadecahydro-1H-cyclopenta[a]chrysen-9-yl)cyclohex-3-enecarboxylic acid] | – | > 7.00 |
| C=C(C)[C@@H]1CC[C@]2(NCCN3C[C@@H]4C[C@H]3CS4(=O)=O)CC[C@]3(C)[C@H](CC[C@@H]4[C@@]5(C)CC=C(C6=CCC(C(=O)O)CC6)C(C)(C)[C@@H]5CC[C@]43C)[C@@H]12 (stereo partly drawn) [Example B2, 4-((1R,3aS,5aR,5bR,7aR,11aS,11bR,13aR,13bR)-3a-((2((1S,4S)-2,2-dioxido-2-thia-5-azabicyclo[2.2.1]heptan-5-yl)ethyl)amino)-5a,5b,8,8,11a-pentamethyl-1-(prop-1-en-2-yl)-2,3,3a,4,5,5a,5b,6,7,7a,8,11,11a,11b,12,13,13a,13b-octadecahydro-1H-cyclopenta[a]chrysen-9-yl)cyclohex-3-enecarboxylic acid] | 8.93 | – |
| C=C(C)[C@@H]1CC[C@]2(NCCN3CC4CCC(C3)O4)CC[C@]3(C)[C@H](CC[C@@H]4[C@@]5(C)CC=C(c6ccc(C(=O)O)cc6)C(C)(C)[C@@H]5CC[C@]43C)[C@@H]12 [Example A2, 4-((1R,3aS,5aR,5bR,7aR,11aS,11bR,13aR,13bR)-3a-((2-(8-oxa-3-azabicyclo[3.2.1]octan-3-yl)ethyl)amino)-5a,5b,8,8,11a-pentamethyl-1-(prop-1-en-2-yl)-2,3,3a,4,5,5a,5b,6,7,7a,8,11,11a,11b,12,13,13a,13b-octadecahydro-1H-cyclopenta[a]chrysen-9-yl)benzoic acid] | 7.15 | – |
| C=C(C)[C@@H]1CC[C@]2(NCCN3C[C@@H]4C[C@H]3CO4)CC[C@]3(C)[C@H](CC[C@@H]4[C@@]5(C)CC=C(C6=CC[C@H](C(=O)O)CC6)C(C)(C)[C@@H]5CC[C@]43C)[C@@H]12 [Example B9, (R)-4-((1R,3aS,5aR,5bR,7aR,11aS,11bR,13aR,13bR)-3a-((2-((1S,4S)-2-oxa-5-azabicyclo[2.2.1]heptan-5-yl)ethyl)amino)-5a,5b,8,8,11a-pentamethyl-1-(prop-1-en-2-yl)-2,3,3a,4,5,5a,5b,6,7,7a,8,11,11a,11b,12,13,13a,13b-octadecahydro-1H-cyclopenta[a]chrysen-9-yl)cyclohex-3-enecarboxylic acid] | 8.77 | – |
| C=C(C)[C@@H]1CC[C@]2(N(CCO)CCN3C[C@@H]4C[C@H]3CS4(=O)=O)CC[C@]3(C)[C@H](CC[C@@H]4[C@@]5(C)CC=C(c6ccc(C(=O)O)cc6)C(C)(C)[C@@H]5CC[C@]43C)[C@@H]12 [Example 6, 4-((1R,3aS,5aR,5bR,7aR,11aS,11bR,13aR,13bR)-3a-((2-((1S,4S)-2,2-dioxido-2-thia-5-azabicyclo[2.2.1]heptan-5-yl)ethyl)(2-hydroxyethyl)amino)-5a,5b,8,8,11a-pentamethyl-1-(prop-1-en-2-yl)-2,3,3a,4,5,5a,5b,6,7,7a,8,11,11a,11b,12,13,13a,13b-octadecahydro-1H-cyclopenta[a]chrysen-9-yl)benzoic acid] | – | > 7.00 |
| C=C(C)[C@@H]1CC[C@]2(NC(=O)CN3C[C@@H]4C[C@H]3CS4(=O)=O)CC[C@]3(C)[C@H](CC[C@@H]4[C@@]5(C)CC=C(c6ccc(C(=O)O)cc6)C(C)(C)[C@@H]5CC[C@]43C)[C@@H]12 [Example 2, 4-((1R,3aS,5aR,5bR,7aR,11aS,11bR,13aR,13bR)-3a-(2-((1S,4S)-2,2-dioxido-2-thia-5-azabicyclo[2.2.1]heptan-5-yl)acetamido)-5a,5b,8,8,11a-pentamethyl-1-(prop-1-en-2-yl)-2,3,3a,4,5,5a,5b,6,7,7a,8,11,11a,11b,12,13,13a,13b-octadecahydro-1H-cyclopenta[a]chrysen-9-yl)benzoic acid] | 8.71 | – |
| C=C(C)[C@@H]1CC[C@]2(NCCN3C[C@@H]4C[C@H]3CS4(=O)=O)CC[C@]3(C)[C@H](CC[C@@H]4[C@@]5(C)CC=C(C6=CC[C@@H](C(=O)O)CC6)C(C)(C)[C@@H]5CC[C@]43C)[C@@H]12 [Example B8, (S)-4-((1R,3aS,5aR,5bR,7aR,11aS,11bR,13aR,13bR)-3a-((2-((1S,4S)-2,2-dioxido-2-thia-5-azabicyclo[2.2.1]heptan-5-yl)ethyl)amino)-5a,5b,8,8,11a-pentamethyl-1-(prop-1-en-2-yl)-2,3,3a,4,5,5a,5b,6,7,7a,8,11,11a,11b,12,13,13a,13b-octadecahydro-1H-cyclopenta[a]chrysen-9-yl)cyclohex-3-enecarboxylic acid] | 8.89 | – |
| C=C(C)[C@@H]1CC[C@]2(NCCN3C[C@H]4CC[C@@H](C3)N4C(=O)OC(C)(C)C)CC[C@]3(C)[C@H](CC[C@@H]4[C@@]5(C)CC=C(c6ccc(C(=O)O)cc6)C(C)(C)[C@@H]5CC[C@]43C)[C@@H]12 [Example 13, 4-((1R,3aS,5aR,5bR,7aR,11aS,11bR,13aR,13bR)-3a-((2-((1R,5S)-8-(tert-butoxycarbonyl)-3,8-diazabicyclo[3.2.1]octan-3-yl)ethyl)amino)-5a,5b,8,8,11a-pentamethyl-1-(prop-1-en-2-yl)-2,3,3a,4,5,5a,5b,6,7,7a,8,11,11a,11b,12,13,13a,13b-octadecahydro-1H-cyclopenta[a]chrysen-9-yl)benzoic acid] | – | < 7.00 |
